In paper PMC11620503 (Antimicrobial Agents and Chemotherapy, 2024):
≈ marks a conversion by molar mass, not a printed value. Like-named read-outs stand apart in the source and are kept apart here.

Experiments:
Experiment in all cases: MIC, broth microdilution
[1] = system: 207 Enterobacterales including carbapenem-resistant isolates; type: cell-based
[2] = system: MEM-nonsusceptible Enterobacterales; type: cell-based; conditions: MEM-nonsusceptible Enterobacterales (127), cefiderocol 126 isolates
[3] = system: serine-carbapenemase-producing isolates (Enterobacterales); type: cell-based; conditions: Enterobacterales with serine-carbapenemases (80)
[4] = system: MBL-producing isolates (Enterobacterales); type: cell-based; conditions: Enterobacterales with metallo-carbapenemases (74), cefiderocol 73 isolates
[5] = system: 55 isolates of A. baumannii; type: cell-based, Acinetobacter baumannii; conditions: Acinetobacter baumannii (55)
96 P. aeruginosa = type: cell-based, Pseudomonas aeruginosa; conditions: Pseudomonas aeruginosa (96)
[6] = system: MEM-, imipenem/relebactam-, and ceftolozane/tazobactam-nonsusceptible P. aeruginosa; type: cell-based, Pseudomonas aeruginosa; conditions: for CLSI MIC interpretation I (intermediate) / CLSI MIC interpretation R (resistant) / CLSI MIC interpretation S (susceptible): marked c: breakpoints for β-lactam alone; for MIC50 / MIC90: Pseudomonas aeruginosa; for MIC50: read-out: MIC50; for MIC90: read-out: MIC90
[7] = system: MEM-nonsusceptible Enterobacterales with serine-carbapenemases; type: cell-based; conditions: MEM-nonsusceptible Enterobacterales with serine-carbapenemases (58)
[8] = system: MEM-nonsusceptible Enterobacterales with metallo-carbapenemases; type: cell-based; conditions: MEM-nonsusceptible Enterobacterales with metallo-carbapenemases (55), cefiderocol 54 isolates
[9] = All Enterobacterales (207), cefiderocol 205 isolates, CLSI breakpoints, marked c: breakpoints for β-lactam alone, tigecycline: FDA breakpoints
[10] = CLSI breakpoints, marked c: breakpoints for β-lactam alone, tigecycline: FDA breakpoints
[11] = fixed concentration (μg/mL) in label, read-out: MIC50
[12] = fixed concentration (μg/mL) in label, read-out: MIC90
[13] = CLSI breakpoints, marked c: breakpoints for β-lactam alone
[14] = Imipenem/relebactam-nonsusceptible Pseudomonas aeruginosa (43), CLSI breakpoints
[15] = MEM-nonsusceptible Pseudomonas aeruginosa (76), CLSI breakpoints
[16] = Imipenem/relebactam-nonsusceptible Pseudomonas aeruginosa (43), fixed concentration (μg/mL) in label
[17] = MEM-nonsusceptible Pseudomonas aeruginosa (76), fixed concentration (μg/mL) in label

C[C@H]1COc2c(N3CCN(C)CC3)c(F)cc3c(=O)c(C(=O)O)cn1c23 [Levofloxacin]
CLSI MIC interpretation I (intermediate) [1, 9]: 3.9% | CLSI MIC interpretation R (resistant) [1, 9]: 72% | CLSI MIC interpretation S (susceptible) [1, 9]: 24.2% | MIC50 ([1]; read-out: MIC50): 16 µg/mL (≈ 44.3 µM) | MIC90 ([1]; read-out: MIC90): 64 µg/mL (≈ 177 µM) | CLSI MIC interpretation I (intermediate) [2, 10]: 2.4% | CLSI MIC interpretation R (resistant) [2, 10]: 79.5% | CLSI MIC interpretation S (susceptible) [2, 10]: 18.1% | MIC50 [2, 11]: 32 µg/mL (≈ 88.6 µM) | MIC90 [2, 12]: 64 µg/mL (≈ 177 µM) | CLSI MIC interpretation I (intermediate) [3, 10]: 1.3% | CLSI MIC interpretation R (resistant) [3, 10]: 71.3% | CLSI MIC interpretation S (susceptible) [3, 10]: 27.5% | MIC50 [3, 11]: 16 µg/mL (≈ 44.3 µM) | MIC90 [3, 12]: > 64 µg/mL | CLSI MIC interpretation I (intermediate) [4, 10]: 6.8% | CLSI MIC interpretation R (resistant) [4, 10]: 81.1% | CLSI MIC interpretation S (susceptible) [4, 10]: 12.2% | MIC50 [4, 11]: 32 µg/mL (≈ 88.6 µM) | MIC90 [4, 12]: > 64 µg/mL | CLSI MIC interpretation I (intermediate) [5, 13]: 10.9% | CLSI MIC interpretation R (resistant) [5, 13]: 89.1% | CLSI MIC interpretation S (susceptible) [5, 13]: 0% | MIC50 [5, 11]: 16 µg/mL (≈ 44.3 µM) | MIC90 [5, 12]: 64 µg/mL (≈ 177 µM) | CLSI MIC interpretation I (intermediate) (96 P. aeruginosa; [13]): 4.2% | CLSI MIC interpretation R (resistant) (96 P. aeruginosa; [13]): 81.3% | CLSI MIC interpretation S (susceptible) (96 P. aeruginosa; [13]): 14.6% | MIC50 (96 P. aeruginosa; [11]): 32 µg/mL (≈ 88.6 µM) | MIC90 (96 P. aeruginosa; [12]): 64 µg/mL (≈ 177 µM) | CLSI MIC interpretation (%) I ([6]; I, intermediate (including susceptible dose-dependent), CLSI breakpoints, last subgroup of Table 2): 2.2% | CLSI MIC interpretation I (intermediate) [6, 14]: 0% | CLSI MIC interpretation R (resistant) [6, 14]: 100% | CLSI MIC interpretation S (susceptible) [6, 14]: 0% | CLSI MIC interpretation I (intermediate) [6, 15]: 1.3% | CLSI MIC interpretation R (resistant) [6, 15]: 89.5% | CLSI MIC interpretation S (susceptible) [6, 15]: 9.2% | MIC50 [6, 16]: 32 µg/mL | MIC90 [6, 16]: > 64 µg/mL | MIC50 [6, 17]: 32 µg/mL (≈ 88.6 µM) | MIC90 [6, 17]: > 64 µg/mL | MIC50 ([6]; Table 2, broth microdilution): 32 µg/mL (≈ 88.6 µM) | MIC90 ([6]; Table 2, broth microdilution): 64 µg/mL (≈ 177 µM) | CLSI MIC interpretation (%) R ([6]; R, resistant, CLSI breakpoints, last subgroup of Table 2): 91.1% | CLSI MIC interpretation (%) S ([6]; S, susceptible, CLSI breakpoints, last subgroup of Table 2): 6.7% | CLSI MIC interpretation I (intermediate) [7, 10]: 0% | CLSI MIC interpretation R (resistant) [7, 10]: 75.9% | CLSI MIC interpretation S (susceptible) [7, 10]: 24.1% | MIC50 [7, 11]: 32 µg/mL (≈ 88.6 µM) | MIC90 [7, 12]: 64 µg/mL (≈ 177 µM) | CLSI MIC interpretation I (intermediate) [8, 10]: 5.5% | CLSI MIC interpretation S (susceptible) [8, 10]: 5.5% | MIC50 [8, 11]: 32 µg/mL (≈ 88.6 µM) | MIC90 [8, 12]: > 64 µg/mL
